The source of these data is paper PMC9006293 (Blood Advances, 2022).

One experiment deals with HLA-DR molecules. To be noted: FVIII-pulsed donor-derived human dendritic cells with diverse HLA-DRB1* molecules; cited from earlier work.
In experiment [1] the test system is DNIMV-specific T-cell hybridoma clones. Nature of the experiment: Antigen-presentation assay, DNIMV-specific clones with fresh or fixed MGAR APCs. It is filed as cell-based, mouse. To be noted: fresh and paraformaldehyde-fixed MGAR APCs, 48 hours, ELISA. Background: In an ELISA, binding on a coated surface is turned into a signal by an enzyme label.
In experiment [2] the test system is PRCLT-specific T-cell hybridoma clones. The experiment in a line: Antigen-presentation assay, PRCLT-specific clones with fresh or fixed MGAR APCs. It is filed as cell-based, mouse. Particulars: fresh and paraformaldehyde-fixed MGAR APCs, 48 hours, ELISA.

For FRNQASRPY, in the experiment on HLA-DR molecules, the HLA-DR binding entry was “promiscuous pan-DR HLA-DR binding peptide”.

In the case of DNIMVTFRNQASRPY, the “IL-2 response of DNIMV-specific clones” value in experiment [1] is “activated”.

Regarding PRCLTRYYSSFVNME, the “IL-2 response of PRCLT-specific clones” value in experiment [2] is reported as “produced IL-2”.
